The results in this text go back to ChEMBL document CHEMBL1153382 (J Med Chem, 2009).

Each structure is given as a SMILES string. The source made the active and inactive calls. The calls are words filed in the database; no cut-off is given here.

T4 sequence (P28223 whole entry): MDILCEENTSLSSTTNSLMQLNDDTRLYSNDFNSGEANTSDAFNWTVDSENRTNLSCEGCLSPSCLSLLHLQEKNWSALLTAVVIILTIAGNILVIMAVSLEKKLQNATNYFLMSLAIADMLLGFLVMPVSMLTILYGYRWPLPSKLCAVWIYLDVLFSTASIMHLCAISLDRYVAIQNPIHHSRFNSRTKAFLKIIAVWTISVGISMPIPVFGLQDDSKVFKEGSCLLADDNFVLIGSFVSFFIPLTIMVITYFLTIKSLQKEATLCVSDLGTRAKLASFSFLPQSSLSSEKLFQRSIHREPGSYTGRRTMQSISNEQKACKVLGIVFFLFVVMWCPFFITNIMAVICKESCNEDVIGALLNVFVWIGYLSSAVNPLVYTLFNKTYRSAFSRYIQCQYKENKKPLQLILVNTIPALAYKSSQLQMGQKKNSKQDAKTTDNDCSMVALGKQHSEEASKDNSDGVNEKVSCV

The first test is filed under the species Homo sapiens. In words: Selectivity ratio of EC50 for human 5HT2B receptor to EC50 for human 5HT2C receptor.
For the compound `NC[C@@H]1C[C@H]1c1ccccc1Br` [listing 1 of 2 here], the Ratio EC50 stood at 2.9.

Another test deals with T1, 5-hydroxytryptamine receptor 2B (Homo sapiens, UniProt P41595). The test is described as follows: Agonist activity at human 5HT2B receptor expressed in HEK293 cells assessed as calcium flux by FLIPR assay. Type of test: functional, cell-based.
T1 sequence (P41595 whole entry): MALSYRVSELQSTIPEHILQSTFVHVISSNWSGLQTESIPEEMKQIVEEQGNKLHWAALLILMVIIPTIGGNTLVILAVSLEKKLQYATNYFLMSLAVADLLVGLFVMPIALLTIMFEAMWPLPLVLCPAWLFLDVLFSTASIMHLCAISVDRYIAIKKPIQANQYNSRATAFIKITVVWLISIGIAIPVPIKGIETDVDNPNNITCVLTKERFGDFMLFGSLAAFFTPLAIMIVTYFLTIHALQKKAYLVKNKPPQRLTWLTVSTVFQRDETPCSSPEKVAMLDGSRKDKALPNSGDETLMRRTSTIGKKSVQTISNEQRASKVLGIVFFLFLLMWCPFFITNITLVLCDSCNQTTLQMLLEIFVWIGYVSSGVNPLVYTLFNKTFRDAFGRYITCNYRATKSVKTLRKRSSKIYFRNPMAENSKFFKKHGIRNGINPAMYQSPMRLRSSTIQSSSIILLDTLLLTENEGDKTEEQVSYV
For the compound `c1cc2c3c(c1)c1c(n3CCNC2)CCCC1`, the result was inactive.
A word on the EC50: it is the midpoint of the concentration-response curve. For `NC[C@@H]1C[C@H]1c1ccccc1`, the EC50 turned out to be 3.09 µM.
Still for that read-out and setting: with `NC[C@@H]1C[C@H]1c1ccccc1Br` [listing 2 of 2 here] the figure was 0.224 µM.
With `c1ccc(CNC[C@H]2C[C@@H]2c2ccccc2)cc1` (racemic), the outcome was inactive.
As for `N[C@@H]1C[C@H]1c1ccccc1.N[C@H]1C[C@@H]1c1ccccc1` (racemic) [TRANYLCYPROMINE], the EC50 is > 5 µM.
`CC(=O)Nc1cccc([C@H]2C[C@@H]2CN)c1` (relative stereo): the outcome was inactive.
Consider `CC(=O)Nc1ccccc1[C@H]1C[C@@H]1CN` (relative stereo), for which the outcome was inactive.
Still for that read-out and setting: with `NC[C@H]1C[C@@H]1c1cccc(NC(=O)c2ccccc2)c1` (relative stereo) the entry was “inactive”; with `CC(C)(O)C#Cc1cccc([C@H]2C[C@@H]2CN)c1` (relative stereo), “inactive”.
Still for that read-out and setting: in the case of `NC[C@H]1C[C@@H]1c1ccc(C#CCCCCO)cc1` (relative stereo) it was “inactive”.
On the same count and under the same terms, in the case of `NC[C@H]1C[C@@H]1c1ccccc1NC(=O)c1ccccc1` (relative stereo) it was “inactive”.
As for `NC[C@H]1C[C@@H]1c1ccccc1NC(=O)Nc1ccc(Cl)cc1` (relative stereo), the outcome was inactive.
`NC[C@@H]1C[C@H]1c1ccccc1` (relative stereo): the concentration giving a half-maximal response (EC50) came to 0.085 µM.
Regarding `COc1ccc([C@H]2C[C@@H]2CN)cc1` (relative stereo), the outcome was inactive.

The target of another test is Serotonin 2 receptors; 5-HT2a & 5-HT2c (Homo sapiens) (UniProt P28223+P28335). In words: Selectivity ratio of EC50 for human 5HT2A receptor to EC50 for human 5HT2C receptor.
Sequence of Serotonin 2 receptors; 5-HT2a & 5-HT2c (Homo sapiens) (P28223 whole entry, looked up, one chain of several): as the sequence (P28223 whole entry) above
For `NC[C@@H]1C[C@H]1c1ccccc1Br` [listing 1 of 2 here], the Ratio EC50 is > 128.

In another test the target is T1, 5-hydroxytryptamine receptor 2B. In words: Agonist activity at human 5HT2B receptor expressed in HEK293 cells at 10 uM assessed as calcium flux by FLIPR assay relative to serotonin. Type of test: functional, cell-based. On the technique in general: Calcium assays in cells follow changes in intracellular calcium, usually with a dye or a luminescent sensor.
By Emax is commonly meant the size of the effect at its maximum, as opposed to the concentration needed. On to `c1cc2c3c(c1)c1c(n3CCNC2)CCCC1`, for which the maximal effect (Emax) is < 12%.
Still for that read-out and setting: in the case of `NC[C@@H]1C[C@H]1c1ccccc1Br` [listing 1 of 2 here] it was 96%; in that of `c1ccc(CNC[C@H]2C[C@@H]2c2ccccc2)cc1` (racemic), 10%; in that of `N[C@@H]1C[C@H]1c1ccccc1.N[C@H]1C[C@@H]1c1ccccc1` (racemic) [TRANYLCYPROMINE], 29%.
Still for that read-out and setting: with `CC(=O)Nc1cccc([C@H]2C[C@@H]2CN)c1` (relative stereo) the figure was < 12%.
The same measure, in the same setting: with `CC(=O)Nc1ccccc1[C@H]1C[C@@H]1CN` (relative stereo) the figure was < 12%; with `NC[C@H]1C[C@@H]1c1cccc(NC(=O)c2ccccc2)c1` (relative stereo), < 12%; with `CC(C)(O)C#Cc1cccc([C@H]2C[C@@H]2CN)c1` (relative stereo), < 12%.
Take `NC[C@H]1C[C@@H]1c1ccc(C#CCCCCO)cc1` (relative stereo): the maximal effect (Emax) was < 12%.
`NC[C@H]1C[C@@H]1c1ccccc1NC(=O)c1ccccc1` (relative stereo): the maximal effect (Emax) is < 12%.
On the same count and under the same terms, in the case of `NC[C@H]1C[C@@H]1c1ccccc1NC(=O)Nc1ccc(Cl)cc1` (relative stereo) it was < 12%; in that of `COc1ccc([C@H]2C[C@@H]2CN)cc1` (relative stereo), < 12%.

The next test concerns the target T2, 5-hydroxytryptamine receptor 2C (Homo sapiens, UniProt P28335).
T2 sequence (P28335 whole entry): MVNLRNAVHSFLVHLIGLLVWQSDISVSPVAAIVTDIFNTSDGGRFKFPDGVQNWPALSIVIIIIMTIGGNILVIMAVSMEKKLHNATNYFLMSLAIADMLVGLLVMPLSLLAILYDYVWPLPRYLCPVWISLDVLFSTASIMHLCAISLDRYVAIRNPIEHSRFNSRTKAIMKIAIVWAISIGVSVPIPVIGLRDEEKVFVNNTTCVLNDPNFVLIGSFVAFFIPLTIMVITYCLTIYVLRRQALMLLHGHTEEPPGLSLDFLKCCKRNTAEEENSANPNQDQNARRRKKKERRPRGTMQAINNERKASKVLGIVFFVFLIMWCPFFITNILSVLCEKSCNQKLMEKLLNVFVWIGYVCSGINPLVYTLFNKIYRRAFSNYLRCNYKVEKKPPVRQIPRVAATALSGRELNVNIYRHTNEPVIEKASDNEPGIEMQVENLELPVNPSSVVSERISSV
The test is described as follows: Agonist activity at human 5HT2C receptor expressed in HEK293 cells assessed as calcium flux by FLIPR assay. The test is classed as functional, cell-based.
Consider `c1cc2c3c(c1)c1c(n3CCNC2)CCCC1`, for which the concentration giving a half-maximal response (EC50) amounted to 0.261 µM.
The same measure, in the same setting: with `NC[C@@H]1C[C@H]1c1ccccc1` the figure was 0.909 µM; with `NC[C@@H]1C[C@H]1c1ccccc1Br` [listing 2 of 2 here], 0.078 µM; with `N[C@@H]1C[C@H]1c1ccccc1.N[C@H]1C[C@@H]1c1ccccc1` (racemic) [TRANYLCYPROMINE], 2.7 µM.
For the compound `CC(=O)Nc1cccc([C@H]2C[C@@H]2CN)c1` (relative stereo), the EC50 is > 1 µM.
On the same count and under the same terms, with `CC(=O)Nc1ccccc1[C@H]1C[C@@H]1CN` (relative stereo) the figure was > 1 µM; with `NC[C@H]1C[C@@H]1c1cccc(NC(=O)c2ccccc2)c1` (relative stereo), > 1 µM; with `CC(C)(O)C#Cc1cccc([C@H]2C[C@@H]2CN)c1` (relative stereo), > 5 µM.
The same measure, in the same setting: in the case of `NC[C@H]1C[C@@H]1c1ccc(C#CCCCCO)cc1` (relative stereo) it was > 10 µM.
On the same count and under the same terms, in the case of `NC[C@H]1C[C@@H]1c1ccccc1NC(=O)c1ccccc1` (relative stereo) it was > 1 µM; in that of `NC[C@H]1C[C@@H]1c1ccccc1NC(=O)Nc1ccc(Cl)cc1` (relative stereo), > 1 µM; in that of `NC[C@@H]1C[C@H]1c1ccccc1` (relative stereo), 0.013 µM.

For the next test, the target named is T3, 5-hydroxytryptamine receptor 2C (Homo sapiens) (UniProt P28335).
T3 sequence (whole entry): T2 sequence (P28335 whole entry)
In words: Agonist activity at human 5HT2C receptor expressed in HEK293 cells at 10 uM assessed as calcium flux by FLIPR assay relative to serotonin. Type of test: functional, cell-based.
For `NC[C@@H]1C[C@H]1c1ccccc1Br` [listing 1 of 2 here], the maximal response (Emax) stood at 113%.
The same measure, in the same setting: with `c1ccc(CNC[C@H]2C[C@@H]2c2ccccc2)cc1` (racemic) the figure was 97%.
For `N[C@@H]1C[C@H]1c1ccccc1.N[C@H]1C[C@@H]1c1ccccc1` (racemic) [TRANYLCYPROMINE], the Emax is 109%.
For the compound `CC(=O)Nc1cccc([C@H]2C[C@@H]2CN)c1` (relative stereo), the Emax was determined as 39%.
The same measure, in the same setting: in the case of `CC(=O)Nc1ccccc1[C@H]1C[C@@H]1CN` (relative stereo) it was 30%; in that of `NC[C@H]1C[C@@H]1c1cccc(NC(=O)c2ccccc2)c1` (relative stereo), 26%; in that of `CC(C)(O)C#Cc1cccc([C@H]2C[C@@H]2CN)c1` (relative stereo), 62%.
On the same count and under the same terms, with `NC[C@H]1C[C@@H]1c1ccc(C#CCCCCO)cc1` (relative stereo) the figure was 24%; with `NC[C@H]1C[C@@H]1c1ccccc1NC(=O)c1ccccc1` (relative stereo), 39%.
Regarding `NC[C@H]1C[C@@H]1c1ccccc1NC(=O)Nc1ccc(Cl)cc1` (relative stereo), the maximal effect (Emax) worked out at 38%.
On the same count and under the same terms, with `COc1ccc([C@H]2C[C@@H]2CN)cc1` (relative stereo) the figure was 86%.

The next test concerns the target T4, 5-hydroxytryptamine receptor 2A (Homo sapiens, UniProt P28223). In words: Agonist activity at human 5HT2A receptor expressed in HEK293 cells at 10 uM assessed as calcium flux by FLIPR assay relative to serotonin. Type of test: functional, cell-based.
For the compound `c1cc2c3c(c1)c1c(n3CCNC2)CCCC1`, the Emax was < 12%.
Still for that read-out and setting: in the case of `NC[C@@H]1C[C@H]1c1ccccc1Br` [listing 1 of 2 here] it was < 12%.
As to `c1ccc(CNC[C@H]2C[C@@H]2c2ccccc2)cc1` (racemic), the Emax was < 12%.
Still for that read-out and setting: with `N[C@@H]1C[C@H]1c1ccccc1.N[C@H]1C[C@@H]1c1ccccc1` (racemic) [TRANYLCYPROMINE] the figure was < 12%.
Same read-out and setting: with `CC(=O)Nc1cccc([C@H]2C[C@@H]2CN)c1` (relative stereo) the figure was < 12%.
As for `CC(=O)Nc1ccccc1[C@H]1C[C@@H]1CN` (relative stereo), the Emax was < 12%.
Same read-out and setting: with `NC[C@H]1C[C@@H]1c1cccc(NC(=O)c2ccccc2)c1` (relative stereo) the figure was < 12%; with `CC(C)(O)C#Cc1cccc([C@H]2C[C@@H]2CN)c1` (relative stereo), < 12%; with `NC[C@H]1C[C@@H]1c1ccc(C#CCCCCO)cc1` (relative stereo), < 12%.
Still for that read-out and setting: in the case of `NC[C@H]1C[C@@H]1c1ccccc1NC(=O)c1ccccc1` (relative stereo) it was < 12%.
The same measure, in the same setting: with `NC[C@H]1C[C@@H]1c1ccccc1NC(=O)Nc1ccc(Cl)cc1` (relative stereo) the figure was < 12%; with `COc1ccc([C@H]2C[C@@H]2CN)cc1` (relative stereo), < 12%.

The target in a further test is T4, 5-hydroxytryptamine receptor 2A. The test is described as follows: Agonist activity at human 5HT2A receptor expressed in HEK293 cells assessed as calcium flux by FLIPR assay. Type of test: functional, cell-based.
On to `c1cc2c3c(c1)c1c(n3CCNC2)CCCC1`, for which the result was inactive.
On the same count and under the same terms, in the case of `NC[C@@H]1C[C@H]1c1ccccc1Br` [listing 1 of 2 here] it was “inactive”; in that of `c1ccc(CNC[C@H]2C[C@@H]2c2ccccc2)cc1` (racemic), “inactive”.
Still for that read-out and setting: with `N[C@@H]1C[C@H]1c1ccccc1.N[C@H]1C[C@@H]1c1ccccc1` (racemic) [TRANYLCYPROMINE] the entry was “inactive”.
On the same count and under the same terms, with `CC(=O)Nc1cccc([C@H]2C[C@@H]2CN)c1` (relative stereo) the entry was “inactive”; with `CC(=O)Nc1ccccc1[C@H]1C[C@@H]1CN` (relative stereo), “inactive”; with `NC[C@H]1C[C@@H]1c1cccc(NC(=O)c2ccccc2)c1` (relative stereo), “inactive”.
For the compound `CC(C)(O)C#Cc1cccc([C@H]2C[C@@H]2CN)c1` (relative stereo), the result was inactive.
The same measure, in the same setting: in the case of `NC[C@H]1C[C@@H]1c1ccc(C#CCCCCO)cc1` (relative stereo) it was “inactive”; in that of `NC[C@H]1C[C@@H]1c1ccccc1NC(=O)c1ccccc1` (relative stereo), “inactive”.
Still for that read-out and setting: with `NC[C@H]1C[C@@H]1c1ccccc1NC(=O)Nc1ccc(Cl)cc1` (relative stereo) the entry was “inactive”.
In the case of `NC[C@@H]1C[C@H]1c1ccccc1` (relative stereo), the EC50 came to 1.4 µM.
With `COc1ccc([C@H]2C[C@@H]2CN)cc1` (relative stereo), the result was inactive.
